The test system of data set [1] is salmon (S. salar). Put plainly: Feeding test with gallic acid in astaxanthin feed, retention of astaxanthin in fish muscle (Example 1). As to conditions: for retention of astaxanthin in fish muscle: 5.5 months. The format is in vivo, Salmo salar. The protocol: The test was carried out on salmon (S. salar) over a 5.5-month period between November 11 and May 5. The test was carried out in vessels having a diameter of 1 metre. The vessels were filled with seawater and the water temperature varied between 8 and 12° C. in the period. There were 34-35 fish in each vessel. Mean weight at start was 118 g. The control group consisted of three vessels, while each test group consisted of one vessel.
The feeds had the following main component composition: 43.5% protein; 27.7% fat; 7.8% water and 8.0% ash.
There was produced feed having three different levels of astaxanthin, 15, 30 and 45 mg astaxanthin/kg respectively, both of the control feeds and the test feeds, by that different amounts of Carophyll Pink were added to the meal mixture before extrusion.
Adding gallic acid into the meal mix to the same recipe as the control feeds provided the test feeds. Gallic acid was added in four levels to the test feeds, low, medium, high and very high, respectively. Low level corresponds to an inclusion level of between 10 and 75 ppm, represented in the examples with an inclusion level of 15 ppm, medium level corresponds to an inclusion level of between 76 and 750 ppm, represented in the examples with an inclusion level of 400 ppm, high level corresponds to an inclusion level of between 751 and 1500 ppm, represented in the example with an inclusion level of 1200 ppm, and very high level corresponds to an inclusion level of over 1500 ppm, represented in the example with an inclusion level of 3600 ppm.
At the termination of the test the fish weighed in average 557 g. SGR was between 0.84%/d and 0.89%/d. The fish were filleted and the fillets were analysed for chemical astaxanthin in duplicates of pooled samples of fillets. Astaxanthin was analysed with HPLC according to a method developed by Roche with modifications.

The subject of data set [2] is salmon (S. salar). Put plainly: Feeding test with ferulic acid in astaxanthin feed, retention of astaxanthin in fish muscle (Example 2). In kind it is in vivo, Salmo salar. The protocol:
The test was carried out with salmon (S. salar) from May 4th to August 20th. The test was carried out in vessels having a diameter of 1 metre. The vessels were filled with seawater and the water temperature varied between 8.3 and 11.8° C. in the period. There were 30 fish in each vessel having a mean weight of 0.2 kg at the start. The control group consisted of two vessels per diet, while the test group consisted of one vessel at medium inclusion of ferulic acid and two vessels per diet at low inclusion of ferulic acid.
The feed had the following main component composition: 44.5% protein; 28.2% fat; 7.6% water and 7.2% ash.
The test feed had the same composition as shown in table 2 and had in addition added ferulic acid as dry powder in meal mix before extrusion. Ferulic acid was added at two levels: low and medium, where the levels are defined as in example 1.
Each feed was formulated with two levels of astaxanthin, 20 and 40 mg/kg.
At the termination of the test the fish weighed 0.7 kg as an average. […] The fish were filleted and the fillet analysed for astaxanthin. Thirty fish per vessel were analysed individually with NIR.

The next data set relates to sea bream. As to conditions: cited from earlier work.
Data set [3] has as its system rainbow trout. The following applies: oral via feed; cited from earlier work.
Data set [4] deals with rainbow trout. The following applies: rainbow trout fed two months; feed with 80 ppm astaxanthin, alone or with 160 ppm proantocyanidin (0.1% KPA-F); cited from earlier work.

Structures are written as SMILES. Where two headings read alike, the source gives them in different places.

`O=C(O)c1cc(O)c(O)c(O)c1` [gallic acid, 3,4,5-hydroxybenzoic acid]: in the data set with salmon (S. salar) [1] (astaxanthin content in the feeds approx. 40 ppm), the “retention of astaxanthin versus control” value was “little difference in the retention”. Further, the “retention of astaxanthin in fish muscle” value in the data set with salmon (S. salar) [1] (high inclusion levels of gallic acid in feed (751-1500 ppm, represented by 1200 ppm)) is listed as “hamper the retention of astaxanthin”; in the data set with salmon (S. salar) [1] (very high level of gallic acid in feed (over 1500 ppm, represented by 3600 ppm)), “worse retention than at the other tested levels”. In the data set with salmon (S. salar) [1] (lowest inclusion level of gallic acid (15 ppm) compared with medium level (400 ppm)), the “effect on the retention of astaxanthin” value is on record as “equally good effect on the retention of astaxanthin as a medium level”.
`COc1cc(C=CC(=O)O)ccc1O` [ferulic acid, 3-(4-hydroxy-3-metoxyphenol)prop-2-enoic acid]: the “effect on the retention of astaxanthin” value in the data set with salmon (S. salar) [2] (low level of ferulic acid (15 ppm), feed contained less than 20 ppm of astaxanthin) is listed as “favourable effect on the retention of astaxanthin”; in the data set on salmon (S. salar) [2] (medium level of ferulic acid (400 ppm), feed contained more than 30 ppm of astaxanthin), “favourable effect on the retention of astaxanthin”. For the same compound, the figures for the “increase in the level of astaxanthin in fish skin” value in the data set on sea bream (1000 ppm ferulic acid) and in the data set with sea bream (only 100 ppm ferulic acid) were “mild increase” and “no increase”, respectively.
Take `CC1=C(/C=C/C(C)=C/C=C/C(C)=C/C=C/C=C(C)/C=C/C=C(C)/C=C/C2=C(C)C(=O)C(O)CC2(C)C)C(C)(C)CC(O)C1=O` (stereo not drawn) [astaxanthin, 3,3′-dihydroxy β,β-carotene-4,4′-dion]: in the data set with rainbow trout [3], the “share of added astaxanthin in the feed deposited in the fish meat” value was “up to 15%”. Further, the “chemical content of astaxanthin in the muscle at the end of the experiment” value in the data set on rainbow trout [4] was 6.57 ppm.

(Values after patent US20120114823A1, “Feed Additive For Improved Pigment Retention” (TROUW INTERNATIONAL B.V., priority 2009, published 2012).)
